{"source": "patent US20250296971A1", "about": "“GASTRIC INHIBITORY PEPTIDE RECEPTOR LIGANDS” (priority 2021, published 2025)", "molecules": {"B1": {"name": "DOTA-Ttds-Asp-Trp-5Clw-Pro-Glu-leu-[Cys(3CbBn)-Aib-Leu-Ile-en] (peptide)", "peptide": "{DOTA-Ttds}-DW[Trp(5-Cl)]PE[dL]C[Aib]LI[Ethylenediamine]", "modifications": "bridge (positions not given here) via 3CbBn; not fully specified (bridges); printed as DOTA-Ttds-Asp-Trp-5Clw-Pro-Glu-leu-[Cys(3CbBn)-Aib-Leu-Ile-en]"}}, "key": {"[1]": {"target": "T1, GIPR (CHO-K1-hGIPR cells) (Homo sapiens, UniProt P48546)", "T1 construct": "host or cells: CHO-K1", "T1 sequence (P48546 22-466)": "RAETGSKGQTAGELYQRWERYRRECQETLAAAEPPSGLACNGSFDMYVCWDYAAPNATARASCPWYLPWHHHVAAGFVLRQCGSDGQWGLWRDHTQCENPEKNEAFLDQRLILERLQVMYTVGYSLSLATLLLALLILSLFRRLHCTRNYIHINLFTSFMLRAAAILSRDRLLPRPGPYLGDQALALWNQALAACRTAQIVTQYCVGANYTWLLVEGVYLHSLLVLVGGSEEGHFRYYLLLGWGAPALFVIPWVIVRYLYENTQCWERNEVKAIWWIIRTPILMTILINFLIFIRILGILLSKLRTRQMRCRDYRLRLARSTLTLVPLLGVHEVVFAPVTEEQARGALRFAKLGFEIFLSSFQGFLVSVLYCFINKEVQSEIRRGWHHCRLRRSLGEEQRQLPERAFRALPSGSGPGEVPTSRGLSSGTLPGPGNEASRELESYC", "assay": "FACS binding assay", "conditions": "competition with 20 nM GIP-057, 4° C., 1 hour, read-out: pIC50 Category (converted)", "procedure,_shortened": "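Median fluorescence in the APC channel, measured on washed CHO-K1 cells overexpressing human GIPR, was fitted by four-parameter logistic regression against peptide concentration to yield EC50 or IC50 values. Secondary labelling used APC-streptavidin (1 μg/mL, 30 min, ice).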"}, "[2]": {"assay": "Plasma stability assay, mouse plasma", "assay_type": "in vitro ADME", "conditions": "37° C., % intact compound remaining after 4 h or 24 h", "protocol": "(§1) In order to determine the stability of selected compounds of the invention in human and mouse plasma, a plasma stability assay was carried out. Such plasma stability assay measures degradation of compounds of the present invention in blood plasma. This is an important characteristic of a compound as compounds, with the exception of pro-drugs, which rapidly degrade in plasma, generally show poor in vivo efficacy. […] The stability is sufficient for the diagnostic, therapeutic and theragnostic use of these compounds according to the present invention.\n(§2) The plasma stability samples were prepared by spiking 50 μL plasma aliquots (all K2EDTA) with 1 μL of a 0.5 mM compound stock solution in DMS0. After vortexing the samples were incubated in a Thermomixer at 37° C. for 0, 4 and 24 hours. After incubation the samples were stored on ice until further treatment. All samples were prepared in duplicates.\n(§3) A suitable internal standard was added to each sample (1 μL of a 0.5 mM stock solution in DMSO). Protein precipitation was performed by addition of 250 μL of acetonitrile containing 1% trifluoroacetic acid. After incubation at room temperature for 30 min the precipitate was separated by centrifugation and 150 μL of the supernatant was diluted with 150 μL of 1% aqueous formic acid.\n(§4) Additionally, recovery was determined by spiking a pure plasma sample that only contained the internal standard after treatment with a certain amount of the compound.\n(§5) Carry-over was evaluated by analysis of a blank sample (20% acetonitrile) after the highest calibration sample."}, "[3]": {"target": "Recombinant soluble human NEP (Homo sapiens, UniProt P08473)", "sequence (P08473 52-750 limits assumed)": "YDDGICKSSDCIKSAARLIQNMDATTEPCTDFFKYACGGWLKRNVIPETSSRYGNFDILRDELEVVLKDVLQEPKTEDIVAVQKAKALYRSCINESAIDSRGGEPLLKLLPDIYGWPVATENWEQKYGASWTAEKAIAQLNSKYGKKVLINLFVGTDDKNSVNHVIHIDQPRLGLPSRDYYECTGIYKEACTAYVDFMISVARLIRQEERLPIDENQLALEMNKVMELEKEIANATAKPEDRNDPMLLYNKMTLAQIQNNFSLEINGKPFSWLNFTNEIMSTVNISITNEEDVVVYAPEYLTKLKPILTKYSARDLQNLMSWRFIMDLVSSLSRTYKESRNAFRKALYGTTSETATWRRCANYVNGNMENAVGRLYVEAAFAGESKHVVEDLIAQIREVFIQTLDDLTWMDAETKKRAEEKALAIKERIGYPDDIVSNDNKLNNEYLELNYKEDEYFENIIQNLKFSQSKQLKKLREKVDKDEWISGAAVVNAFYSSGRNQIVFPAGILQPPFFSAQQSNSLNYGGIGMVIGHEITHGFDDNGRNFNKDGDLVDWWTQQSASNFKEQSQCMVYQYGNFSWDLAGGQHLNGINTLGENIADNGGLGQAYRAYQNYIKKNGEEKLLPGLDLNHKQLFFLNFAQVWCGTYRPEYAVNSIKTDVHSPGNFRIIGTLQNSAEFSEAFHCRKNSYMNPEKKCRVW", "assay": "Proteolytic stability assay against NEP", "conditions": "NEP 100 ng/mL, compound 10 μM, 37° C., % intact compound remaining"}, "[4]": {"target": "T2, human GIPR (HEK-GIPR cells) (Homo sapiens, UniProt P48546)", "T2 construct": "host or cells: HEK293", "T2 sequence (P48546 22-466)": "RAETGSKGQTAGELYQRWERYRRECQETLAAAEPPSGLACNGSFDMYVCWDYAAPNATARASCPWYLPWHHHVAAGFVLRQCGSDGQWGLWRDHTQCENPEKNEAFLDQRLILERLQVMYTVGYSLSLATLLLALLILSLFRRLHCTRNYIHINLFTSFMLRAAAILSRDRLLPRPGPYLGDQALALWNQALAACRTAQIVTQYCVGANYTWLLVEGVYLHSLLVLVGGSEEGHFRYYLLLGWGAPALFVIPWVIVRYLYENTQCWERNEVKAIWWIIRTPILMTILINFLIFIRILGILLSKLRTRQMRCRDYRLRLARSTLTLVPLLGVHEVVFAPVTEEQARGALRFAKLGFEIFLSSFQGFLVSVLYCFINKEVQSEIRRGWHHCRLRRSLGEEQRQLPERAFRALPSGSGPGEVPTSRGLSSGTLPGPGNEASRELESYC", "assay": "cAMP assay", "assay_type": "cell-based", "conditions": "37° C., 30 min, cAMP-Glo", "protocol": "In order to determine the inhibitory or stimulatory activity of compounds according to the present invention of GIPR-expressing cells, a cAMP activity assay was established.\nHEK-GIPR cells were generated by InSCREENeX GmbH (Germany) using the targeting vector pTAR to insert the minimal CMV promoter upstream of the human GIPR cDNA by recombinase-mediated cassette exchange into the pre-tagged HEK293 cell line.\nHEK-GIPR cells were cultured in RPMI-1640 medium (Sigma-Aldrich, #R0883) including 10% fetal calf serum (FCS), 8 mM L-glutamine, 100 U/mL penicillin, 100 μg/mL streptomycin and 1 mg/mL Geneticin. Cells were detached with Accutase (Biolegend, #BLD-423201) and diluted in culture medium to a final concentration of 100,000 cells per mL. 100 μL of the cell suspension were transferred to white poly-L-lysine-coated 96-well plates with optical bottom (Nunc, #165306) and incubated overnight in a humidified atmosphere containing 5% CO2 at 37° C.\nFor cAMP detection, the cAMP-Glo™ Assay (Promega, #V1501) was employed. […] After 10 min of incubation, luminescence was read using a SpectraMax M5 Plate Reader (Molecular Devices).\nRelative luminescence values (RLU) were plotted against peptide concentration and four parameter logistic (4PL) curve fitting and calculations of EC50/pEC50 and IC50/pIC50, respectively, were performed using ActivityBase software."}, "[5]": {"assay": "Plasma stability assay, human plasma", "assay_type": "in vitro ADME", "conditions": "37° C., % intact compound remaining after 4 h or 24 h", "protocol": "as §1, §2, §3, §4, §5"}, "[6]": {"target": "biotinylated extracellular domain of the human GIP receptor (bioGIPR) (human) (UniProt P48546)", "assay": "SPR single cycle kinetics, bioGIPR captured on chip; category B: pKD 8.1-9.0"}, "[7]": {"target": "biotinylated extracellular domain of the human GIP receptor (bioGIPR) (human) (UniProt P48546)", "assay": "SPR single cycle kinetics, bioGIPR captured on chip; category C: t1/2 5-2.1 min"}, "[8]": {"target": "human Gastric Inhibitory Peptide Receptor (GIPR) (human) (UniProt P48546)", "assay": "FACS competition vs biotinylated GIP-057 on CHO-K1-hGIPR cells; category B: pIC50 7.1-8.0"}}, "note": "*1 amine or outer side, *2 acyl side, *3 side chain or, on linkers, in order; H or OH if unused. Where a SMILES comes first, the peptide text is derived from it. Bridges are numbered along the chain shown (N, C = ends). Where no end group is shown, it is not given here. [ ]: non-standard residue; d: D form. The star is where a group is joined. X5 = NC(=O)[C@H](CCCCNC(=O)CN1CCN(CC(=O)O)CCN(CC(=O)O)CCN(CC(=O)O)CC1)NC(=O)CCC(=O)NCCCOCCOCCOCCCN*; Ttds = 1,13-diamino-4,7,10-trioxatridecan-succinamic acid, NCCCOCCOCCOCCCNC(=O)CCC(=O)*; X3 = O=C(O)CN1CCN(CC(=O)O)CCN(CC(=O)NCCCOCCOCCOCCCN*)CCN(CC(=O)O)CC1; DOTA = O=C(O)CN1CCN(CC(=O)O)CCN(CC(=O)*)CCN(CC(=O)O)CC1; Trp(5-Cl) = N[C@@H](Cc1c[nH]c2ccc(Cl)cc12)C(=O)O; mXylylene = c1cc(C[*:1])cc(C[*:2])c1; Ethylenediamine = C(CN[*:2])N[*:1]; Suc = O=C(CCC(=O)[*:2])[*:1]; 3CbBn = 3-carboxybenzyl; Aib = CC(C)(N)C(=O)O", "data": [{"molecule": "CC[C@H](C)[C@@H]1NC(=O)[C@H](CC(C)C)NC(=O)[C@H](C)NC(=O)[C@@H](NC(=O)[C@H](CC(C)C)NC(=O)[C@H](CCC(=O)O)NC(=O)[C@@H]2CCCN2C(=O)[C@H](Cc2c[nH]c3ccccc23)NC(=O)[C@H](Cc2c[nH]c3ccccc23)NC(=O)[C@H](CC(=O)O)NC(=O)[C@H](Cc2ccc(O)cc2)NC(C)=O)CSCc2cccc(c2)CSC[C@@H](C(=O)NCCCOCCOCCOCCCNC(=O)CCC(=O)N[C@@H](CCCCNC(=O)CN2CCN(CC(=O)O)CCN(CC(=O)O)CCN(CC(=O)O)CC2)C(N)=O)NC1=O", "note": "[GIP-127, Ac-Tyr-Asp-Trp-Trp-Pro-Glu-Leu-[Cys(3MeBn)-Ala-Leu-Ile-Cys]-Ttds-Lys(DOTA)-NH2] (Ac-YDWWPELCALIC-X5; linker 8-12 via mXylylene)", "values": [{"measurement": "IC50", "setting": "[1]", "value": "10 to 79.4", "unit": "nM"}, {"measurement": "Mouse plasma stability category", "setting": "[2]", "value": "B (>80% intact after 4 hours)"}, {"measurement": "NEP stability category", "setting": "[3]", "value": "A (>80% intact after 24 hours)"}]}, {"molecule": "GIP(1-30) C-ter. ^natInDOTA", "values": [{"measurement": "Mean pEC50 ± SD", "setting": "[4]", "value": "12.0 ± 0.1"}]}, {"molecule": "CC[C@H](C)[C@@H]1NC(=O)[C@H](CC(C)C)NC(=O)[C@H](C)NC(=O)[C@@H](NC(=O)[C@H](CC(C)C)NC(=O)[C@H](CCC(=O)O)NC(=O)[C@@H]2CCCN2C(=O)[C@H](Cc2c[nH]c3ccccc23)NC(=O)[C@H](Cc2c[nH]c3ccccc23)NC(=O)[C@H](CC(=O)O)NC(C)=O)CSCc2cccc(c2)CSC[C@@H](C(N)=O)NC1=O", "note": "[GIP-244, Ac-Asp-Trp-Trp-Pro-Glu-Leu-[Cys(3MeBn)-Ala-Leu-Ile-Cys]-NH2] (Ac-DWWPELCALIC-NH2; linker 7-11 via mXylylene)", "values": [{"measurement": "IC50", "setting": "[1]", "value": "10 to 79.4", "unit": "nM"}, {"measurement": "Human plasma stability category", "setting": "[5]", "value": "B (>80% intact after 4 hours)"}, {"measurement": "Mouse plasma stability category", "setting": "[2]", "value": "B (>80% intact after 4 hours)"}, {"measurement": "NEP stability category", "setting": "[3]", "value": "A (>80% intact after 24 hours)"}]}, {"molecule": "CC[C@H](C)[C@@H]1NC(=O)[C@H](CC(C)C)NC(=O)[C@H](C)NC(=O)[C@@H](NC(=O)[C@H](CC(C)C)NC(=O)[C@H](CCC(=O)O)NC(=O)[C@@H]2CCCN2C(=O)[C@H](Cc2c[nH]c3ccccc23)NC(=O)[C@H](Cc2c[nH]c3ccccc23)NC(=O)[C@H](CC(=O)O)NC(=O)[C@H](Cc2ccc(O)cc2)NC(=O)CCC(=O)NCCCOCCOCCOCCCNC(=O)CN2CCN(CC(=O)O)CCN(CC(=O)O)CCN(CC(=O)O)CC2)CSCc2cccc(c2)CSC[C@@H](C(N)=O)NC1=O", "note": "[GIP-126, DOTA-Ttds-Tyr-Asp-Trp-Trp-Pro-Glu-Leu-[Cys(3MeBn)-Ala-Leu-Ile-Cys]-NH2] ({X3-Suc}-YDWWPELCALIC-NH2; linker 8-12 via mXylylene)", "values": [{"measurement": "IC50", "setting": "[1]", "value": "10 to 79.4", "unit": "nM"}, {"measurement": "Mouse plasma stability category", "setting": "[2]", "value": "B (>80% intact after 4 hours)"}, {"measurement": "NEP stability category", "setting": "[3]", "value": "A (>80% intact after 24 hours)"}]}, {"molecule": "B1", "values": [{"measurement": "pKD", "setting": "[6]", "value": "8.1 to 9", "unit": "pkd"}, {"measurement": "t1/2", "setting": "[7]", "value": "2.1 to 5", "unit": "min"}, {"measurement": "pIC50", "setting": "[8]", "value": "7.1 to 8", "unit": "pic50"}]}]}
